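These data come from cells grown in 96-well plates and exposed to compound for 48 hours at five concentrations. The concentration for 50% growth inhibition is given as GI50.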 Active and inactive are the calls of the source. Cut-off read from the data, not from the text of the source: active = GI50 up to about 1.1 µM and inactive = higher.
Experiments:
Test in all cases: NCI anticancer screen, dose series, 48 h
OVCAR-4 = system: OVCAR-4
SK-MEL-28 = system: SK-MEL-28
COLO 205 = system: COLO 205
OVCAR-8 = system: OVCAR-8
CCRF-CEM = system: CCRF-CEM
A549 = system: A549
NCI-H460 = system: NCI-H460
RXF 393 = system: RXF 393
UACC-62 = system: UACC-62
SF-268 = system: SF-268
UO-31 = system: UO-31
MCF7 = system: MCF7
NCI-H522 = system: NCI-H522
HCT-116 = system: HCT-116
M14 = system: M14
NCI-H23 = system: NCI-H23
MDA-MB-231 = system: MDA-MB-231
UACC-257 = system: UACC-257
NCI-H226 = system: NCI-H226
SR = system: SR

Measured: GI50

CC(C)(C)c1ccc(OCC(=O)O)c(Cl)c1
inactive: OVCAR-4 > 100 µM | SK-MEL-28 > 100 µM | COLO 205 > 100 µM | OVCAR-8 > 100 µM | CCRF-CEM > 100 µM | A549 > 100 µM | NCI-H460 > 100 µM | RXF 393 > 100 µM | UACC-62 > 100 µM | SF-268 > 100 µM | UO-31 > 100 µM | MCF7 > 100 µM | NCI-H522 > 100 µM | HCT-116 > 100 µM | M14 > 100 µM | NCI-H23 > 100 µM | MDA-MB-231 > 100 µM | UACC-257 > 100 µM | NCI-H226 > 100 µM

CN(C(=O)Cc1ccccc1)n1cn[n+](CC(=O)OC(C)(C)C)c1
inactive: OVCAR-4 > 10 µM | SK-MEL-28 > 10 µM | COLO 205 > 10 µM | OVCAR-8 > 10 µM | CCRF-CEM > 10 µM | SR > 10 µM | A549 > 10 µM | NCI-H460 > 10 µM | UACC-62 > 10 µM | SF-268 > 10 µM | UO-31 > 10 µM | MCF7 > 10 µM | NCI-H522 > 10 µM | HCT-116 > 10 µM | M14 > 10 µM | NCI-H23 > 10 µM | MDA-MB-231 > 10 µM | UACC-257 > 10 µM | NCI-H226 > 10 µM

O=c1/c(=C\c2ccccc2)sc2n1C(c1ccccc1)C1(O)CCCCC1N=2 (stereo not given)
inactive: OVCAR-4 50.6 µM | SK-MEL-28 > 100 µM | OVCAR-8 > 100 µM | CCRF-CEM 91 µM | SR 62.5 µM | A549 78.3 µM | NCI-H460 90.2 µM | UACC-62 > 100 µM | SF-268 > 100 µM | UO-31 44.2 µM | MCF7 43.7 µM | NCI-H522 > 100 µM | HCT-116 51.3 µM | M14 > 100 µM | NCI-H23 56.9 µM | MDA-MB-231 95.7 µM | UACC-257 > 100 µM | NCI-H226 > 100 µM

O=C(NCCCNCCCCNCCCNC(=O)C(F)(F)F)C(F)(F)F
inactive: OVCAR-4 > 100 µM | SK-MEL-28 > 100 µM | COLO 205 > 100 µM | OVCAR-8 > 100 µM | CCRF-CEM > 100 µM | A549 > 100 µM | NCI-H460 > 100 µM | RXF 393 > 100 µM | UACC-62 > 100 µM | SF-268 > 100 µM | UO-31 > 100 µM | MCF7 > 100 µM | NCI-H522 > 100 µM | HCT-116 > 100 µM | M14 > 100 µM | NCI-H23 > 100 µM | MDA-MB-231 > 100 µM | UACC-257 > 100 µM | NCI-H226 > 100 µM

CN(C)/C=C/c1ccnc2c1C(=O)c1ccccc1C2=O
inactive: OVCAR-4 23.4 µM | SK-MEL-28 2.48 µM | COLO 205 24.9 µM | OVCAR-8 15.5 µM | CCRF-CEM 16.5 µM | A549 8.99 µM | NCI-H460 2.35 µM | RXF 393 > 59.3 µM | UACC-62 1.38 µM | SF-268 13.6 µM | UO-31 7.48 µM | MCF7 4.46 µM | NCI-H522 8.51 µM | HCT-116 3.22 µM | M14 1.92 µM | NCI-H23 2.48 µM | MDA-MB-231 30.6 µM | UACC-257 2.25 µM | NCI-H226 10.5 µM

N=C(CC(=O)NOC(=O)c1ccccc1)NOC(=O)c1ccccc1
inactive: OVCAR-4 18.3 µM | SK-MEL-28 27.5 µM | COLO 205 26.6 µM | OVCAR-8 27.9 µM | CCRF-CEM 38 µM | A549 32.4 µM | NCI-H460 31.1 µM | RXF 393 10.8 µM | UACC-62 25.9 µM | SF-268 23.2 µM | UO-31 19.1 µM | MCF7 25.8 µM | HCT-116 38.6 µM | M14 > 100 µM | NCI-H23 69.7 µM | MDA-MB-231 > 100 µM | UACC-257 > 100 µM | NCI-H226 12.8 µM

COC1(OC)CC(CO)(COc2cc(Cl)nc(N)n2)C1
inactive: OVCAR-4 > 100 µM | SK-MEL-28 > 100 µM | COLO 205 > 100 µM | OVCAR-8 > 100 µM | CCRF-CEM > 100 µM | A549 > 100 µM | NCI-H460 > 100 µM | RXF 393 > 100 µM | UACC-62 > 100 µM | SF-268 > 100 µM | UO-31 > 100 µM | MCF7 > 100 µM | NCI-H522 > 100 µM | HCT-116 > 100 µM | NCI-H23 > 100 µM | MDA-MB-231 > 100 µM | UACC-257 > 100 µM | NCI-H226 > 100 µM
